Columns and labels:
[1] = molecular target: T1, Muscarinic acetylcholine receptor M1 (Homo sapiens, UniProt P11229); type: functional, cell-based
T1 sequence (P11229 whole entry): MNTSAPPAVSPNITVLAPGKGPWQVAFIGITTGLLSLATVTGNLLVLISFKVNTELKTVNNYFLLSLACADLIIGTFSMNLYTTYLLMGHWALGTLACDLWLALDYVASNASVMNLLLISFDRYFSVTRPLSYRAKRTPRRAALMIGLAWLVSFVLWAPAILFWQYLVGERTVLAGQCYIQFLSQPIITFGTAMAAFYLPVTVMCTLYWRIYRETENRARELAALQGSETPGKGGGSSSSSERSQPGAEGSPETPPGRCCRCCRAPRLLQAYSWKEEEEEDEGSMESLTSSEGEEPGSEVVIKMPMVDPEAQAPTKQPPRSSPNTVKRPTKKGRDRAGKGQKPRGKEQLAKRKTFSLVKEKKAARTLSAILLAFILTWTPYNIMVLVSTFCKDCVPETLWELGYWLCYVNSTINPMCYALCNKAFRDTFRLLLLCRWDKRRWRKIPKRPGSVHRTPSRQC

[2] = molecular target: T2, Estrogen receptor (Homo sapiens, UniProt P03372)
T2 sequence (P03372 whole entry): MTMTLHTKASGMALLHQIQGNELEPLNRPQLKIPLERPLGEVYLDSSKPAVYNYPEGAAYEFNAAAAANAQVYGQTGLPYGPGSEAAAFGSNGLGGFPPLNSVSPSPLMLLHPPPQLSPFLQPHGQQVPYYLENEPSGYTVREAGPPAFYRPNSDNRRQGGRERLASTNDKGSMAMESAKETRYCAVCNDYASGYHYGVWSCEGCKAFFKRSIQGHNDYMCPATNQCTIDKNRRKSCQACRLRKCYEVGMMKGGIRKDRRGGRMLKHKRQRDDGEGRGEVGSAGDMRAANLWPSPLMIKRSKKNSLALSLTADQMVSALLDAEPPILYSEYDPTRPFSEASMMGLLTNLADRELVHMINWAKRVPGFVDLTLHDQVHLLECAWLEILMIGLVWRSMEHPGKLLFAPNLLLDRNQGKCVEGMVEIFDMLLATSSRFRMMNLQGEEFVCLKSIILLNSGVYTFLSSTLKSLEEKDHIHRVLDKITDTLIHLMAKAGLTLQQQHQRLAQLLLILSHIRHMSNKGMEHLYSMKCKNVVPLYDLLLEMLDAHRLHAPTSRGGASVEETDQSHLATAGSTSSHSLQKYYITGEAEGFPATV

[3] = molecular target: D(1A) dopamine receptor (Homo sapiens, UniProt P21728); type: functional, cell-based
D(1A) dopamine receptor, sequence (P21728 whole entry): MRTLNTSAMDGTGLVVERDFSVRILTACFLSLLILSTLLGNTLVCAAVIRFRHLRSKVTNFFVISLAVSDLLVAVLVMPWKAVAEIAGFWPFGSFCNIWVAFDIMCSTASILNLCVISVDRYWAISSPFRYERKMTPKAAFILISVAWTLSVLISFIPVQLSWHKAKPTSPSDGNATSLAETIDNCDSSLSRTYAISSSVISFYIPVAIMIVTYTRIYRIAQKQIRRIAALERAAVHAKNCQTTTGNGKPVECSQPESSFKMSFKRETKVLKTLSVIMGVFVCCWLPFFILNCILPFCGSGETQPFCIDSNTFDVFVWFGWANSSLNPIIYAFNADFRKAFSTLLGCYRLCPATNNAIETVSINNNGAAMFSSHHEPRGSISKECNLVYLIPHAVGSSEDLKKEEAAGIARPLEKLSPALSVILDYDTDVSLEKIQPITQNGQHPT

[4] = molecular target: T3, 5-hydroxytryptamine receptor 3A (Homo sapiens, UniProt P46098); type: functional
T3 sequence (P46098 whole entry): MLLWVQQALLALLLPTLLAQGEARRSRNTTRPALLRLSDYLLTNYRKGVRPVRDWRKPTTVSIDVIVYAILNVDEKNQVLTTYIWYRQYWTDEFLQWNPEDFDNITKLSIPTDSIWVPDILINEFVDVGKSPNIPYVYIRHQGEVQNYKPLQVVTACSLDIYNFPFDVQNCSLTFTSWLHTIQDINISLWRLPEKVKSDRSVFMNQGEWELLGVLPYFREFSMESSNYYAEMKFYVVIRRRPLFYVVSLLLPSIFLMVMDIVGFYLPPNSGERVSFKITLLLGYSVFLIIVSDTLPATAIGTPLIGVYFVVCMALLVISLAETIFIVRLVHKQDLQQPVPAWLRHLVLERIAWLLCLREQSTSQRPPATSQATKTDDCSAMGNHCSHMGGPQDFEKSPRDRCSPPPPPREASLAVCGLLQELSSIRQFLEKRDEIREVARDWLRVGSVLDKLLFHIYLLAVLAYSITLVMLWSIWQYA

[5] = molecular target: Gamma-aminobutyric acid receptor subunit alpha-1 (Rattus norvegicus, UniProt P62813); type: functional
Gamma-aminobutyric acid receptor subunit alpha-1, sequence (P62813 whole entry): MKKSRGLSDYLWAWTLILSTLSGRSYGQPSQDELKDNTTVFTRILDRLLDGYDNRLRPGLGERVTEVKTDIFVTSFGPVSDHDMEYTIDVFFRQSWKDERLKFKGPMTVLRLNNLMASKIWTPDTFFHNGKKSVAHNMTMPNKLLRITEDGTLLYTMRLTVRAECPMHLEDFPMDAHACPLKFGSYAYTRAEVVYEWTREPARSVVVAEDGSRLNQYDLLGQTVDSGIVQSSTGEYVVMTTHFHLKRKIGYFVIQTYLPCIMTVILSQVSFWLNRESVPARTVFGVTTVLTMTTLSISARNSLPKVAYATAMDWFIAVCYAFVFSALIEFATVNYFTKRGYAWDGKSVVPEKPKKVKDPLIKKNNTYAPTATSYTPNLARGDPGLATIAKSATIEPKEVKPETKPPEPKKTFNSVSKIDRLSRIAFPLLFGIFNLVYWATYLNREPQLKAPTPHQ

[6] = molecular target: Mu-type opioid receptor (Homo sapiens, UniProt P35372)
Mu-type opioid receptor, sequence (P35372 whole entry): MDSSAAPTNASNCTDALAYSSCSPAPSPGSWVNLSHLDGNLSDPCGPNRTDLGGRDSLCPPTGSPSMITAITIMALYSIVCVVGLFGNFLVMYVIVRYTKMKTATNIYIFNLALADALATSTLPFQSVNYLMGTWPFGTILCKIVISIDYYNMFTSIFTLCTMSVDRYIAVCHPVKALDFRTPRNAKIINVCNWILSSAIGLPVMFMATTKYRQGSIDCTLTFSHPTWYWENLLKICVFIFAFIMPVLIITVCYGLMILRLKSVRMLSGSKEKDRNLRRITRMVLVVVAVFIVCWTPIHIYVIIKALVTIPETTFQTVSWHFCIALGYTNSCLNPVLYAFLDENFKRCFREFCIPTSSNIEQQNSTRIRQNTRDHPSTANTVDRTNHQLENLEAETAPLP

[7] = molecular target: T4, Endothelin-1 receptor (Homo sapiens, UniProt P25101)
T4 sequence (P25101 whole entry): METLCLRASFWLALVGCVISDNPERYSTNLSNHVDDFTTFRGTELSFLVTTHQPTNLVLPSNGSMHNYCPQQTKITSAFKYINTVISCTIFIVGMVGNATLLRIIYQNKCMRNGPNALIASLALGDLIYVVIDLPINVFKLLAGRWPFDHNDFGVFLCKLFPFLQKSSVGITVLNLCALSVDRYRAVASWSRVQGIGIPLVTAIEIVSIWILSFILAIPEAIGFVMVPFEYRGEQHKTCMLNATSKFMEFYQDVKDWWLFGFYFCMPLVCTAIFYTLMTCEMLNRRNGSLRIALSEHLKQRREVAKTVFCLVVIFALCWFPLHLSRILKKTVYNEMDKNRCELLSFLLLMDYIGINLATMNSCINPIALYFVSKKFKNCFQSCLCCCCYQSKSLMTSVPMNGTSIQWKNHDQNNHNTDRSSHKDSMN

[8] = molecular target: T5, B2 bradykinin receptor (Homo sapiens, UniProt P30411)
T5 sequence (P30411 whole entry): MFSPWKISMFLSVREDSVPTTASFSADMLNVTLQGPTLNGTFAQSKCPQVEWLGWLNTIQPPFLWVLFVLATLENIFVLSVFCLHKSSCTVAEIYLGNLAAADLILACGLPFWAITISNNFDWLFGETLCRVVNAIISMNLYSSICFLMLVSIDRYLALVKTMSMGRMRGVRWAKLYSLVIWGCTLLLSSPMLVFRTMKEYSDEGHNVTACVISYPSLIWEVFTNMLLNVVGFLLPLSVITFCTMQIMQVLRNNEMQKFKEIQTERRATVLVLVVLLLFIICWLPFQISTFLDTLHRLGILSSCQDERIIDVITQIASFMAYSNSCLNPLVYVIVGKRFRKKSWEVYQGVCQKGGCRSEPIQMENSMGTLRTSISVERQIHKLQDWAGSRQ

[9] = molecular target: Vasopressin V2 receptor (Homo sapiens, UniProt P30518)
Vasopressin V2 receptor, sequence (P30518 whole entry): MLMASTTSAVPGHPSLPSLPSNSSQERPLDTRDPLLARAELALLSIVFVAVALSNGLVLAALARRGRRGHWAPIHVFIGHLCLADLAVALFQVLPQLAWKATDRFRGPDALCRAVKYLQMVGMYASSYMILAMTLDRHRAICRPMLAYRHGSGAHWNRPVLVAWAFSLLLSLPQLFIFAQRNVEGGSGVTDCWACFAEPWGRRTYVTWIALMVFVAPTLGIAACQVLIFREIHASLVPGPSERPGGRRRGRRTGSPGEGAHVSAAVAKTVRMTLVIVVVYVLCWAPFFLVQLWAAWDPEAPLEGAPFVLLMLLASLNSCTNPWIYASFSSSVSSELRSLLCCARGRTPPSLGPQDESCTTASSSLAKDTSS
Further: assay procedure not described here.

Structure (SMILES) | AC50 [1] [µM] | AC50 [2] [µM] | other results
CC[C@@H]1C[C@]1(NC(=O)[C@@H]1C[C@@H]2CN1C(=O)[C@H](C(C)(C)C)NC(=O)OCC(C)(C)CCCCc1cccc3c1CN(C3)C(=O)O2)C(=O)NS(=O)(=O)C1CC1 | 23.4 | > 30 | 
CC(=O)NO [ACETOHYDROXAMIC ACID] | > 30 |  | 
CC(=O)NCCCCCC(=O)O [ACEXAMIC ACID] | > 30 | > 30 | 
C=C(C)CNc1ccc(C(C)C(=O)O)cc1 (stereo unspecified) [ALMINOPROFEN] | > 30 | > 30 | 
C[C@H]1CN(C[C@H](Cc2ccccc2)C(=O)NCC(=O)O)CC[C@@]1(C)c1cccc(O)c1 [ALVIMOPAN] | > 30 | > 30 | 
CC(C)NC(=N)NC(=N)Nc1ccc(Cl)c(Cl)c1 [CHLORPROGUANIL] |  | > 30 | AC50 [3]: > 30 µM; AC50 [4]: > 30 µM; AC50 [5]: > 30 µM
Cc1cc(C2CCCCC2)n(O)c(=O)c1 [CICLOPIROX] |  | > 30 | 
C[C@H]1O[C@@H](O[C@H]2CC[C@@]3(C)[C@H](CC[C@@H]4[C@@H]3C[C@@H](O)[C@]3(C)[C@@H](C5=CC(=O)OC5)CC[C@]43O)C2)C[C@H](O)[C@@H]1O[C@H]1C[C@H](O)[C@H](O[C@H]2C[C@H](O)[C@H](O[C@@H]3O[C@H](CO)[C@@H](O)[C@H](O)[C@H]3O)[C@@H](C)O2)[C@@H](C)O1 [DESLANOSIDE] | > 30 | > 30 | 
CC[C@H]1OC(=O)[C@H](C)[C@@H](O[C@H]2C[C@@](C)(OC)[C@@H](O)[C@H](C)O2)[C@H](C)[C@@H](O[C@@H]2O[C@H](C)C[C@H](N(C)C)[C@H]2O)[C@](C)(O)C[C@@H](C)[C@@H]2N[C@@H](COCCOC)O[C@H]([C@H]2C)[C@]1(C)O [DIRITHROMYCIN] | > 30 | > 30 | 
CCCCc1oc2ccc(NS(C)(=O)=O)cc2c1C(=O)c1ccc(OCCCN(CCCC)CCCC)cc1 [DRONEDARONE] | > 30 |  | 
CC(C)C(=O)Oc1ccc(CO)cc1[C@H](CCN(C(C)C)C(C)C)c1ccccc1 [FESOTERODINE] | > 30 | > 30 | 
CC1(C)O[C@@H]2C[C@H]3[C@@H]4C[C@H](F)C5=CC(=O)C=C[C@]5(C)[C@@]4(F)[C@@H](O)C[C@]3(C)[C@]2(C(=O)CO)O1 [FLUOCINOLONE ACETONIDE] |  | > 30 | 
Cc1ccc(C)c(OCCCC(C)(C)C(=O)O)c1 [GEMFIBROZIL] |  | > 30 | AC50 [3]: > 10 µM; AC50 [6]: > 30 µM; AC50 [7]: > 30 µM; AC50 [8]: > 30 µM; AC50 [4]: > 30 µM; AC50 [5]: > 10 µM; AC50 [9]: > 30 µM
C#C[C@]1(O)C=C[C@H]2[C@@H]3CCC4=CC(=O)CC[C@@H]4[C@H]3CC[C@@]21CC [GESTODENE] |  | 1.2 | 
N=C(N)N/N=C/c1c(Cl)cccc1Cl [GUANABENZ] |  | > 30 | 
C[N+](C)(CCCCCC[N+](C)(C)C1c2ccccc2-c2ccccc21)C1c2ccccc2-c2ccccc21 [HEXAFLUORENIUM] | > 30 | > 30 | 
CCCCC(CC)CN1CN(CC(CC)CCCC)CC(C)(N)C1 (stereo unspecified) [HEXETIDINE] | > 30 | > 30 | 
Cc1cc(=O)oc2cc(O)ccc12 [HYMECROMONE] | > 30 | > 30 | 
COc1c2occc2c(OC)c2c(=O)cc(C)oc12 [KHELLIN] | > 30 |  | 
CC(C)[C@@H]1CC[C@@H](C)C[C@H]1O [LEVOMENTHOL] | > 30 |  | 

Structure (SMILES) | AC50 [1] [µM] | AC50 [2] [µM] | other results
COC(=O)[C@@H](N)Cc1ccc(O)c(O)c1 [MELEVODOPA] | > 30 |  | 
C[N+]1(C)CCCC(OC(=O)C(O)(c2ccccc2)c2ccccc2)C1 (stereo unspecified) [MEPENZOLATE] | > 30 | > 30 | 
C=N[C@@H](C(=O)N[C@@H]1C(=O)N2[C@@H]1SC(C)(C)[C@@H]2C(=O)O)c1ccccc1 [METAMPICILLIN] | > 30 |  | 
O=C(NNCS(=O)(=O)O)c1ccncc1 [METHANIAZIDE] | > 30 | > 30 | 
Cc1cc(=O)[nH]c(=S)[nH]1 [METHYLTHIOURACIL] | > 30 | > 30 | 
CN(C)c1ccc(O)c2c1C[C@H]1C[C@H]3[C@H](N(C)C)C(O)=C(C(N)=O)C(=O)[C@@]3(O)C(O)=C1C2=O [MINOCYCLINE] | > 30 | > 30 | 
CCNC(=O)/C=C(C)/C=C/C=C(C)/C=C/c1c(C)cc(OC)c(C)c1C [MOTRETINIDE] | > 30 | 16.4 | 
C=CC(=O)Nc1cccc(Oc2nc(Nc3ccc(N4CCN(C)CC4)cc3)nc3ccsc23)c1 [OLMUTINIB] | > 30 | 28.6 | 
COc1ccc2[nH]c([S+]([O-])Cc3ncc(C)c(OC)c3C)nc2c1 (stereo unspecified) [OMEPRAZOLE] |  | > 30 | 
CCCCC1C(=O)N(c2ccccc2)N(c2ccc(O)cc2)C1=O (stereo unspecified) [OXYPHENBUTAZONE ANHYDROUS] | > 30 |  | 
O=C(O)CN(CCN(CC(=O)O)CC(=O)O)CCN(CC(=O)O)CC(=O)O [PENTETIC ACID] | > 30 |  | 
Nc1cccc2c1C(=O)N(C1CCC(=O)NC1=O)C2=O (stereo unspecified) [POMALIDOMIDE] | > 30 | > 30 | 
C[Se]CC[C@H](N)C(=O)O [SELENOMETHIONINE] | > 30 | > 30 | 
C[N+](C)(C)CCOC(=O)CCC(=O)OCC[N+](C)(C)C [SUXAMETHONIUM] |  | > 30 | 
Cc1ccc(C(=O)c2ccc(CC(=O)O)n2C)cc1 [TOLMETIN] |  | > 30 | 
Cc1ccccc1C(=O)Nc1ccc(C(=O)N2CCCC(O)c3cc(Cl)ccc32)c(C)c1 (stereo unspecified) [TOLVAPTAN] | > 30 |  | 
C[C@]12C=CC(=O)C=C1CC[C@H]1[C@@H]3C[C@@H](O)[C@](O)(C(=O)CO)[C@@]3(C)C[C@H](O)[C@@]12F [TRIAMCINOLONE] |  | > 30 | 
CC(C)C[C@H](NC(=O)[C@@H](O)[C@H](N)Cc1ccccc1)C(=O)O [UBENIMEX] |  | > 30 | AC50 [3]: > 30 µM; AC50 [4]: > 30 µM; AC50 [5]: > 30 µM
CC[C@]12CCCN3CCc4c(n(c5ccccc45)[C@@](O)(C(=O)OC)C1)[C@@H]32 [VINCAMINE] | > 30 |  | 
CCC1=C[C@@H]2CN(C1)Cc1c([nH]c3ccccc13)[C@@](C(=O)OC)(c1cc3c(cc1OC)N(C)[C@H]1[C@@](O)(C(=O)OC)[C@H](OC(C)=O)[C@]4(CC)C=CCN5CC[C@]31[C@@H]54)C2 [VINORELBINE] |  | > 30 | 

Source: ChEMBL document CHEMBL5291721, “A preclinical secondary pharmacology resource illuminates target-adverse drug reaction associations of marketed drugs” (Nat Commun, 2023)
